Earlier results on one compound are cited in patent publication US20090099252A1, “NOVEL L[…] AS THERAPEUTIC AGENTS” (priority 2007, published 2009).

The test system of the data set is multi-drug resistant cell line SKVLB-1. As to conditions: background statement.

For the compound `C=C1C[C@H](C)C[C@@H]2CC=C[C@@H](C/C=C\C(=O)O[C@H]([C@@H](O)/C=C/[C@@H]3CC(C)=CCO3)C[C@@H]3O[C@H]3[C@@H](O)C1)O2` [Laulimalide, laulimalide], the IC50 (usually the concentration at which inhibition is half-maximal) was 1200 nM.
